The compounds below were run on Caco-2 (assay: Antiproliferative activity against human Caco-2 cells assessed as cell viability by MTT assay after 48 hrs). Conditions: not given.
Format: functional

Row | Structure (SMILES) | IC10 [µM]
1 | c1ccc(C(CCCCN2CCN(CCCOc3ccc(C4O[C@@H](c5ccccc5)[C@H](c5ccccc5)O4)cc3)CC2)c2ccccc2)cc1 (relative stereo) | 15.9
2 | CN1CCN(CCCOc2ccc(C3O[C@H](c4ccccc4)[C@@H](c4ccccc4)O3)cc2)CC1 (relative stereo) | 19.5

Same assay, conditions: Homo sapiens, Caco-2, 48 h; read-out: IC10

Row | Structure (SMILES) | IC10 [µM]
3 | c1ccc(C(CCCCN2CCN(CCCOc3ccc(C4O[C@@H](c5ccccc5)[C@H](c5ccccc5)O4)cc3)CC2)c2ccccc2)cc1 | 17.1
4 | CN1CCN(CCCOc2ccc(C3OC(c4ccccc4Cl)C(c4ccccc4Cl)O3)cc2)CC1 (configuration not stated) | 19.5
5 | c1ccc(C(CCCCN2CCN(CCCCOc3ccc(C4OC(c5ccccc5)C(c5ccccc5)O4)cc3)CC2)c2ccccc2)cc1 (configuration not stated) | 17.5
6 | c1ccc(C(CCN2CCN(CCCOc3ccc(C4OC(c5ccccc5)C(c5ccccc5)O4)cc3)CC2)c2ccccc2)cc1 (configuration not stated) | 18.5
7 | c1ccc(C2OC(c3ccc(OCCCN4CCCCC4)cc3)OC2c2ccccc2)cc1 (configuration not stated) | 15.3
8 | CN1CCN(CCCCOc2ccc(C3OC(c4ccccc4)C(c4ccccc4)O3)cc2)CC1 (configuration not stated) | 13.8
9 | OCCN1CCN(CCCOc2ccc(C3OC(c4ccccc4)C(c4ccccc4)O3)cc2)CC1 (configuration not stated) | 76.6
10 | CN1CCN(CCCOc2ccc(C3O[C@H](c4ccccc4)[C@H](c4ccccc4)O3)cc2)CC1 (some centres not stated) | 21.1
11 | CC1OC(c2ccccc2)(c2ccccc2)OCC1CN1CCN(CCCCC(c2ccccc2)c2ccccc2)CC1 (configuration not stated) | 6.1
12 | CC1OC(c2ccccc2)(c2ccccc2)OCC1CN1CCN(C)CC1 (configuration not stated) | 9.7
13 | c1ccc(C(CCCCN2CCN(CCOc3ccc(C4OC(c5ccccc5)C(c5ccccc5)O4)cc3)CC2)c2ccccc2)cc1 (configuration not stated) | 14.7
14 | c1ccc(C(CCCN2CCN(CCCOc3ccc(C4OC(c5ccccc5)C(c5ccccc5)O4)cc3)CC2)c2ccccc2)cc1 (configuration not stated) | 12.4
15 | c1ccc(C(CCCCN2CCN(CCCOc3ccc(C4O[C@H](c5ccccc5)[C@H](c5ccccc5)O4)cc3)CC2)c2ccccc2)cc1 (some centres not stated) | 16.8
16 | c1ccc(C2(c3ccccc3)OCC(CCCCN3CCCCC3)O2)cc1 (configuration not stated) | 18.1
17 | CN1CCN(CCCOc2ccc(C3O[C@H](c4ccccc4)[C@@H](c4ccccc4)O3)cc2)CC1 | 20.4
18 | CN1CCN(CCCOc2ccc(C3OC(c4ccc(F)cc4)C(c4ccc(F)cc4)O3)cc2)CC1 (configuration not stated) | 18.8
19 | c1ccc(C2OC(c3ccc(OCCCN4CCN(C(c5ccccc5)c5ccccc5)CC4)cc3)OC2c2ccccc2)cc1 (configuration not stated) | 16.4
20 | c1ccc(C(CCCCN2CCN(CCCCC3COC(c4ccccc4)(c4ccccc4)O3)CC2)c2ccccc2)cc1 (configuration not stated) | 5.85
21 | c1ccc(C(CCCCN2CCN(CCCOc3ccc(C4O[C@H](c5ccccc5)[C@@H](c5ccccc5)O4)cc3)CC2)c2ccccc2)cc1 | 16.2
22 | c1ccc(C(CN2CCN(CCCOc3ccc(C4OC(c5ccccc5)C(c5ccccc5)O4)cc3)CC2)c2ccccc2)cc1 (configuration not stated) | 6.1
23 | OCCN1CCN(CCCCC2COC(c3ccccc3)(c3ccccc3)O2)CC1 (configuration not stated) | 98.3
24 | CN1CCN(CCCCC2COC(c3ccccc3)(c3ccccc3)O2)CC1 (configuration not stated) | 10.5
25 | CN1CCN(CCOc2ccc(C3OC(c4ccccc4)C(c4ccccc4)O3)cc2)CC1 (configuration not stated) | 8.6
26 | CN1CCN(CCCOc2ccc(C3O[C@@H](c4ccccc4)[C@H](c4ccccc4)O3)cc2)CC1 | 19.9
27 | CN1CCN(CCCN2c3ccccc3Sc3ccc(C(F)(F)F)cc32)CC1 [TRIFLUOPERAZINE] | 11.3
